Results published in ChEMBL document CHEMBL3132769, “Fragment growing to retain or alter the selectivity of anchored kinase hinge-binding fragments” (Medchemcomm, 2014).

How the values were obtained:
[1] = target: T1, Inhibitor of nuclear factor kappa-B kinase subunit beta (Homo sapiens) (UniProt O14920); experiment: Inhibition of human full length IKK beta expressed in baculovirus assessed as substrate phosphorylation using fluorescence-labelled peptides as substrate at 9 uM after 90 mins by microfluidic peptide phosphorylation assay
T1 sequence (whole entry): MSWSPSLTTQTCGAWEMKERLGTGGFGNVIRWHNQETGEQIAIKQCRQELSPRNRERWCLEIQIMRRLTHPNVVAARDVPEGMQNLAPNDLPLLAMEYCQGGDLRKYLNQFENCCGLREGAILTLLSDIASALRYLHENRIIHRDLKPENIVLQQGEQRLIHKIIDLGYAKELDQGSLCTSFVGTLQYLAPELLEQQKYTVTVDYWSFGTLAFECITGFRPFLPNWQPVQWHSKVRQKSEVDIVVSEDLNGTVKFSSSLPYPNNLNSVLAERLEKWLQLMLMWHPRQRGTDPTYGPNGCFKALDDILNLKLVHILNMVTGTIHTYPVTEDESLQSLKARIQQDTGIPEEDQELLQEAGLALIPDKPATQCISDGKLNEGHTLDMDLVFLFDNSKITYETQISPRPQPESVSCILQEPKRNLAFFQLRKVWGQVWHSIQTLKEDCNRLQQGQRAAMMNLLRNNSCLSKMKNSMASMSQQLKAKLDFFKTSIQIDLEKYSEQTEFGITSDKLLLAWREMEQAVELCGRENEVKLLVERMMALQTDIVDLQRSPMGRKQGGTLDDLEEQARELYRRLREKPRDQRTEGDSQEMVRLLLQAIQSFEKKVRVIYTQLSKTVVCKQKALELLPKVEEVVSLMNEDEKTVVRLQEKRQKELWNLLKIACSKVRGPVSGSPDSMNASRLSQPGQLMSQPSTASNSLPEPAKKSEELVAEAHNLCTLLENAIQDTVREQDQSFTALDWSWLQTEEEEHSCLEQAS

[2] = target: Protein kinase C alpha type (Homo sapiens) (UniProt P17252); experiment: Inhibition of human truncated PKC alpha expressed in baculovirus assessed as substrate phosphorylation using fluorescence-labelled peptides as substrate at 0.06 uM after 90 mins by microfluidic peptide phosphorylation assay
[3] = target: T2, Protein kinase C epsilon type (Homo sapiens) (UniProt Q02156); experiment: Inhibition of human truncated PKC epsilon expressed in baculovirus assessed as substrate phosphorylation using fluorescence-labelled peptides as substrate at 0.06 uM after 90 mins by microfluidic peptide phosphorylation assay
T2 sequence (whole entry): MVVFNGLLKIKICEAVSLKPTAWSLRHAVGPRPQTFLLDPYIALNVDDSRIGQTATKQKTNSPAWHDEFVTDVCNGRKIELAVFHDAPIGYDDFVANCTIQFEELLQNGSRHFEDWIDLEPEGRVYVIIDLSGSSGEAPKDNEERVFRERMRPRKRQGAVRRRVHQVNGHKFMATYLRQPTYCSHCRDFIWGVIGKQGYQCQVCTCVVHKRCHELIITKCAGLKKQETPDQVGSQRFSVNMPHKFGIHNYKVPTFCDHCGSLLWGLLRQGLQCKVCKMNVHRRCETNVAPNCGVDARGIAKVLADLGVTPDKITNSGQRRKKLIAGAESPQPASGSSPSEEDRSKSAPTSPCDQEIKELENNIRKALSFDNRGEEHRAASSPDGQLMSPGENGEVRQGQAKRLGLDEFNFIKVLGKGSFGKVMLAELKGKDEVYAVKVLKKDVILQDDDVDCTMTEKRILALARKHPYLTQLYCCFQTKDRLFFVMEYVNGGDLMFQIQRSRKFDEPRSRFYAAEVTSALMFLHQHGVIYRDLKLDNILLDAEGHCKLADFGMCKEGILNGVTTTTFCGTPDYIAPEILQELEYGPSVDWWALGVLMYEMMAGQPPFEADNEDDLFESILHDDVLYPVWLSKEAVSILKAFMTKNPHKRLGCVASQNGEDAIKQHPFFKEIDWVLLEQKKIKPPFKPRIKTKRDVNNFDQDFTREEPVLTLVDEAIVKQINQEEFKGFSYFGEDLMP

[4] = system: Fibroblast growth factor receptor 2 (Homo sapiens), P21802 [N549H]; experiment: Inhibition of human FGFR2 N549H mutant catalytic domain expressed in baculovirus assessed as substrate phosphorylation using fluorescence-labelled peptides as substrate at 0.1 uM after 90 mins by microfluidic peptide phosphorylation assay
[5] = target: Tyrosine-protein kinase Fer (Homo sapiens) (UniProt P16591); experiment: Inhibition of human FER catalytic domain expressed in baculovirus assessed as substrate phosphorylation using fluorescence-labelled peptides as substrate at […] after 90 mins by microfluidic peptide phosphorylation assay
[6] = target: Tyrosine-protein kinase HCK (Homo sapiens) (UniProt P08631); experiment: Inhibition of human HCK catalytic domain expressed in baculovirus assessed as substrate phosphorylation using fluorescence-labelled peptides as substrate at 420 uM after 90 mins by microfluidic peptide phosphorylation assay
[7] = target: Casein kinase I isoform delta (Homo sapiens) (UniProt P48730); experiment: Inhibition of human CK1D catalytic domain expressed in Escherichia coli cell assessed as substrate phosphorylation using fluorescence-labelled peptides as substrate at 0.2 uM after 90 mins by microfluidic peptide phosphorylation assay
[8] = target: T3, Mitogen-activated protein kinase 12 (Homo sapiens) (UniProt P53778); experiment: Inhibition of human full length p38 gamma expressed in Escherichia coli cell assessed as substrate phosphorylation using fluorescence-labelled peptides as substrate at 2 uM after 90 mins by microfluidic peptide phosphorylation assay
T3 sequence (whole entry): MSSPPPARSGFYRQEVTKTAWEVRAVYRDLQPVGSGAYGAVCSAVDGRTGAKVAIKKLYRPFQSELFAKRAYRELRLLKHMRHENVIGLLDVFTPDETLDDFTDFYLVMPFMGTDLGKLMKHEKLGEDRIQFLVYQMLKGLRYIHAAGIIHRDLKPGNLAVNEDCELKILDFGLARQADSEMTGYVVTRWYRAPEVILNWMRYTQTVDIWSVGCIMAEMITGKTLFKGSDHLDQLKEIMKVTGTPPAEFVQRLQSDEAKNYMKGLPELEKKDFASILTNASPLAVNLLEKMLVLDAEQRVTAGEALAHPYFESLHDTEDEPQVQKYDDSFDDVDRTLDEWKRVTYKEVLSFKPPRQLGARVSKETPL

[9] = target: Serine/threonine-protein kinase PAK 2 (Homo sapiens) (UniProt Q13177); experiment: Inhibition of human truncated PAK2 expressed in Escherichia coli cell assessed as substrate phosphorylation using fluorescence-labelled peptides as substrate at 2 uM after 90 mins by microfluidic peptide phosphorylation assay
[10] = target: Dual specificity tyrosine-phosphorylation-regulated kinase 1A (Rattus norvegicus) (UniProt Q63470); experiment: Inhibition of rat full length DYRK1a expressed in Escherichia coli cell assessed as substrate phosphorylation using fluorescence-labelled peptides as substrate at 1000 uM after 90 mins by microfluidic peptide phosphorylation assay

Sequence of Serine/threonine-protein kinase PAK 2 (Homo sapiens) (Q13177 whole entry, the tested form may be a part): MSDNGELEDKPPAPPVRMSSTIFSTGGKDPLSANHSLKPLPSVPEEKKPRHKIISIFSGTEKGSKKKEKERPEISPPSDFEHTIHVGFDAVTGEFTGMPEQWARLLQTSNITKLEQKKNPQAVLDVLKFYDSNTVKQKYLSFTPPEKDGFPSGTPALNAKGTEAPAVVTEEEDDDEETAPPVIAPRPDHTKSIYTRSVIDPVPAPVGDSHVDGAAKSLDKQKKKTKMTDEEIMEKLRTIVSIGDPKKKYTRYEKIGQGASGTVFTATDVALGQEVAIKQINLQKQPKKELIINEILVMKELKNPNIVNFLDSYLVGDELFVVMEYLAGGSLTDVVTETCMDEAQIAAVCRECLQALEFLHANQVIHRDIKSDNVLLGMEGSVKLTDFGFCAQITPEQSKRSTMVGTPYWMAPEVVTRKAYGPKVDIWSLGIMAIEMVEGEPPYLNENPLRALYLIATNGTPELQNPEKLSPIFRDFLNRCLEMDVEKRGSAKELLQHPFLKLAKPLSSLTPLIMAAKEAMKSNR
Sequence of Casein kinase I isoform delta (Homo sapiens) (P48730 whole entry, looked up, the tested form may be a part, canonical isoform): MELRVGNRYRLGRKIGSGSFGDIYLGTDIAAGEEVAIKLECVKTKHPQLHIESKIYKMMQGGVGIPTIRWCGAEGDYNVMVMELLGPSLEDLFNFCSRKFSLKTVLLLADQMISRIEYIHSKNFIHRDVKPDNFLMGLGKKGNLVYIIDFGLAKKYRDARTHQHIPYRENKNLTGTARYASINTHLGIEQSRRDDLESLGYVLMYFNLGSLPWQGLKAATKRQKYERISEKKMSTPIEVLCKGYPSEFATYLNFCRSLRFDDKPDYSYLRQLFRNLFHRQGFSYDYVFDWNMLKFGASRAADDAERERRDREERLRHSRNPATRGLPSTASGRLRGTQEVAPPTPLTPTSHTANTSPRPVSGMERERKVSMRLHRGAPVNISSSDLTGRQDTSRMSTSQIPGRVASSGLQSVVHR
Sequence of Tyrosine-protein kinase Fer (Homo sapiens) (P16591 whole entry, looked up, the tested form may be a part): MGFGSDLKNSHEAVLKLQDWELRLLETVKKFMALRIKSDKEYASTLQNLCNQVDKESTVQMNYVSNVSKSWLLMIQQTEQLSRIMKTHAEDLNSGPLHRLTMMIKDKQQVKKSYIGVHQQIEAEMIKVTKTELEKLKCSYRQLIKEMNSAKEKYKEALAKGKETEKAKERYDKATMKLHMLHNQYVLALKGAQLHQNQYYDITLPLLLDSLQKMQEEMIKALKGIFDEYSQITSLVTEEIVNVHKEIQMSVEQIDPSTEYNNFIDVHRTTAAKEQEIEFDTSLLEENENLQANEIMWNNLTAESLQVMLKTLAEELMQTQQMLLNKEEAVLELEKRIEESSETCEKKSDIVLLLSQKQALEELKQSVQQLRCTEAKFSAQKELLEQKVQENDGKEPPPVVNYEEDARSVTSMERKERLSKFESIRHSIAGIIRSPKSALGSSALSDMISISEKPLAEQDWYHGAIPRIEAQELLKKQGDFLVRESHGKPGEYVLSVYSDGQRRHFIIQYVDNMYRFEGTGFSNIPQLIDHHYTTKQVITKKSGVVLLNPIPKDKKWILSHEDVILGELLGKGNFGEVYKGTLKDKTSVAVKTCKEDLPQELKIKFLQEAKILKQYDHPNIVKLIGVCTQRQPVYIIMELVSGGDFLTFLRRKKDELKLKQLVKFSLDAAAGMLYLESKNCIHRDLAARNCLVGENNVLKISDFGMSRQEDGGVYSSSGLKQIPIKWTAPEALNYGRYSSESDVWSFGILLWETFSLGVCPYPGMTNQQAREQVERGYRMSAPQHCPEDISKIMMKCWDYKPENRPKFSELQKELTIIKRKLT
Sequence of Tyrosine-protein kinase HCK (Homo sapiens) (P08631 2-526 limits assumed): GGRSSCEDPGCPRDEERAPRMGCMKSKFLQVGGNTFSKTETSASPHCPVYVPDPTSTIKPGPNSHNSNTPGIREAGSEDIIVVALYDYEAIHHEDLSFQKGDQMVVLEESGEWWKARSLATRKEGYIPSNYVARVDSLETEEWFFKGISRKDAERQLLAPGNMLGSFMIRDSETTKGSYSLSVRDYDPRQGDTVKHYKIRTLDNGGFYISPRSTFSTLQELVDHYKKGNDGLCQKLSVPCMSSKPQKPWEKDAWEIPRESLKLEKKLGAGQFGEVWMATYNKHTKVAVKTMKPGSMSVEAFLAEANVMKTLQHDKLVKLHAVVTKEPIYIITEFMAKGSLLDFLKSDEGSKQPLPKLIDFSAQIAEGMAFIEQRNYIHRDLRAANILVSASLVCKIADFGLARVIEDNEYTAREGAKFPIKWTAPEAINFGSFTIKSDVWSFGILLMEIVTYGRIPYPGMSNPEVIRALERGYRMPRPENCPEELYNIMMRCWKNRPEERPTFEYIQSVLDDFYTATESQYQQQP
Sequence of Fibroblast growth factor receptor 2 (Homo sapiens), P21802 [N549H] (P21802 whole entry N549H, the tested form may be a part): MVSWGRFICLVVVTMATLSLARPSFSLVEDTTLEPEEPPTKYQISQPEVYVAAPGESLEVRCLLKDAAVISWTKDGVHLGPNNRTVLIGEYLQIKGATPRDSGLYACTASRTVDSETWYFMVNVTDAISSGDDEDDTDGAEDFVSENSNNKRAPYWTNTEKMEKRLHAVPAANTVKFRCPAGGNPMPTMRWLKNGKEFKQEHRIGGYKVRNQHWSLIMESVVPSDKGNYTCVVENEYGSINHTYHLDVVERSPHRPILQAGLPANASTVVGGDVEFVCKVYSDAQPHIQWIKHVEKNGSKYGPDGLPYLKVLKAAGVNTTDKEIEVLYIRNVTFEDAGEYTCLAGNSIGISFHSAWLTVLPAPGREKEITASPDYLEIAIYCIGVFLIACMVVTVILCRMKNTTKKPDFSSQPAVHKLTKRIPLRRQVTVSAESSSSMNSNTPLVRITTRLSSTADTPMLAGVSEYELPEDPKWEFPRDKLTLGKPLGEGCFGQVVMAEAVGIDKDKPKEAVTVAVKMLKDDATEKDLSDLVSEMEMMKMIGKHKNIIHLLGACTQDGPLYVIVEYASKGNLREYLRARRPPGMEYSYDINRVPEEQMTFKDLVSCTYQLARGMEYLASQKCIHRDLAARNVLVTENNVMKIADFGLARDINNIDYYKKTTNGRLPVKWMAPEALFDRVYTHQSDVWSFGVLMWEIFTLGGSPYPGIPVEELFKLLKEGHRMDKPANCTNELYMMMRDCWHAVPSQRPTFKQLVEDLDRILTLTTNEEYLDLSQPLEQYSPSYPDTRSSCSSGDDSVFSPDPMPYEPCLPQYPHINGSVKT

Compound: NCC1CN(c2ncnc3[nH]c4cnccc4c23)CCO1 (stereo not given)
- inhibition [1]: 83%

Compound: NC1(Cc2ccc(Cl)cc2)CCN(c2ncnc3[nH]ccc23)CC1
- inhibition [2]: 30%
- inhibition [3]: 1.5%

Compound: C[C@H](CN(C)C)Oc1nc(Nc2cc3cccc(Cl)c3cn2)cnc1C#N
- inhibition [4]: 7.5%

Compound: COC(=O)c1cnc(Nc2cnc(C#N)cn2)cc1NCC1CCNCC1
- inhibition [5]: 1%

Compound: c1nc(N2CCOCC2)c2nc[nH]c2n1
- inhibition [6]: 69.5%

Compound: Clc1ccc(C2(c3ccc(-c4ncnc5[nH]cnc45)cc3)CCNCC2)cc1
- inhibition [7]: 8.5%

Compound: NC1CCN(c2ncnc3[nH]ccc23)CC1
- inhibition [8]: 1.5%
- inhibition [9]: 3.5%

Compound: c1cnc2[nH]ccc2c1
- inhibition [10]: 64.5%
